Results published in article PMC12615863, “Improving GRPR-targeting peptides for radiotheranostics application: insights from chelator modifications and α-methyl-L tryptophan substitution” (EJNMMI Radiopharmacy and Chemistry, 2025).

Legend:
PC-3 cells = test: In vitro GRPR specificity assay (uptake with or without NOTA-PEG2-RM26 block); type: cell-based, human; details: 1 nM radiopeptide, 1 h at 37 °C, block with 1 µM NOTA-PEG2-RM26, n = 3
Experimental: After discarding the medium, the cells were washed with cold (4 °C) phosphate-buffered saline containing 1% w/v bovine serum albumin (PBS/BSA). The radiopeptides (Cf = 1 nM in 1 mL PBS/BSA) were added to all wells. A subset of wells was also treated with an excess of unlabeled GRPR-binding peptide NOTA-PEG2-RM26 (Bjäreback et al. [2025]) (Cf = 1 µM in 1 mL PBS/BSA) to block GRPR. After incubation for 1 h at 37 °C, the supernatant was removed, and the cells were washed and then collected by treating them with 1 M NaOH. The activity of the collected samples was measured with the gamma counter. This assay was performed in triplicate for each radiopeptide.

GRPR = target: T1, GRPR (Homo sapiens, UniProt P30550); parameters: method as in PMID 19480415; details: LigandTracer, PC-3 cells, previously published data, cited from earlier work
T1 construct: 3 × 10^6 PC-3 cells were seeded in 100 mm Petri dishes; host or cells: PC-3 human prostate cancer cells
T1 sequence (P30550 whole entry): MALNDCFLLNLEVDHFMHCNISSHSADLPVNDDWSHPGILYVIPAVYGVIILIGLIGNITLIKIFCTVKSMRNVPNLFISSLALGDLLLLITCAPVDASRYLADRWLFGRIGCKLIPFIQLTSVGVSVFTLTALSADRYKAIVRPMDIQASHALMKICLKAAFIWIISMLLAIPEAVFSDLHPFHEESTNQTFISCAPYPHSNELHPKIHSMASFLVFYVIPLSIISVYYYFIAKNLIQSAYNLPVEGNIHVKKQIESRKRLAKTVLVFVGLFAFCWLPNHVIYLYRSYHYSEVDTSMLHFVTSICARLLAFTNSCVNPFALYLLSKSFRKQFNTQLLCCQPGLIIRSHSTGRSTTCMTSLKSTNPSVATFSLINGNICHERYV

| Molecule | in vitro binding specificity (PC-3 cells) | ka1 (GRPR; 1 and 5 nM) [M⁻¹ s⁻¹] | ka2 (GRPR; 1 and 5 nM) [M⁻¹ s⁻¹] | kd1 (GRPR; 1 and 5 nM) | kd2 (GRPR; 1 and 5 nM) | Bmax1 / Bmax2 (GRPR) |
| --- | --- | --- | --- | --- | --- | --- |
| CC(C)C[C@H](NC(=O)C[C@H](O)[C@H](CC(C)C)NC(=O)[C@H](Cc1c[nH]cn1)NC(=O)CN(C)C(=O)[C@@H](NC(=O)[C@H](C)NC(=O)[C@H](Cc1c[nH]c2ccccc12)NC(=O)[C@H](CCC(N)=O)NC(=O)[C@@H](Cc1ccccc1)NC(=O)CN1CCC(NC(=O)COCCOCCNC(=O)CN2CCN(CC(=O)O)CCN(CC(=O)O)CCN(CC(=O)O)CC2)CC1)C(C)C)C(N)=O [[^177Lu]Lu-PKB1, metal not drawn] | GRPR-mediated activity uptake |  |  |  |  |  |
| DOTAGA-PEG2-Pip-[Sar^11]RM26 [[^177Lu]Lu-AU-RM26-M2] [parent compound, AU-RM26-M2 (DOTAGA-PEG2-Pip-[Sar^11]RM26) labeled with Lu-177, previously reported by the authors] |  | 184000 | 1.08e+06 | 3.53 × 10^–5 1/s | 5.94 × 10^–2 1/s | 0.16 |
